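Grown in 96-well plates, cells were treated for 48 hours with each compound at five concentrations. Insufficient inhibition: endpoint recorded as highest concentration tested. The concentration for 50% growth inhibition is given as GI50. TGI: concentration producing complete growth inhibition.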
How the values were obtained:
Assay in all cases: DTP human tumour cell line panel, 48 h
HL-60(TB) leukemia = test system: HL-60(TB) leukemia
MALME-3M melanoma = test system: MALME-3M melanoma
HOP-62 NSCLC = test system: HOP-62 NSCLC
A498 renal = test system: A498 renal
BT-549 breast = test system: BT-549 breast
NCI-H460 lung = test system: NCI-H460 lung
T-47D breast = test system: T-47D breast
HCT-116 colon = test system: HCT-116 colon
SF-539 CNS = test system: SF-539 CNS
HCC-2998 colon = test system: HCC-2998 colon

Compound	GI50 (HL-60(TB) leukemia)	TGI (HL-60(TB) leukemia)	GI50 (MALME-3M melanoma)	TGI (MALME-3M melanoma)	GI50 (HOP-62 NSCLC)	TGI (HOP-62 NSCLC)	GI50 (A498 renal)	TGI (A498 renal)	GI50 (BT-549 breast)	TGI (BT-549 breast)	GI50 (NCI-H460 lung)	TGI (NCI-H460 lung)	GI50 (T-47D breast)	TGI (T-47D breast)	TGI (HCT-116 colon)	TGI (SF-539 CNS)	TGI (HCC-2998 colon)	GI50 (HCT-116 colon)	GI50 (SF-539 CNS)	GI50 (HCC-2998 colon)
COc1ccc(C2NC(=S)NC3=C2CCOc2c3ccc3ccccc23)cc1 (configuration not stated)	23.4 µM	> 100 µM	49.8 µM	> 100 µM	> 100 µM	> 100 µM	16.6 µM	> 100 µM	68.8 µM	> 100 µM	7.88 µM	> 100 µM	8.5 µM	> 100 µM						
N#CCc1cccc(CC#N)c1Br		> 100 µM		> 100 µM		> 100 µM						> 100 µM			> 100 µM	> 100 µM				
O=C(O)CSc1n[nH]c(-c2ccco2)n1		> 100 µM		> 100 µM		> 100 µM		> 100 µM				> 100 µM			> 100 µM	> 100 µM	> 100 µM			
O=C1CCC(=O)N1Sc1ccccc1		> 100 µM				> 100 µM		> 100 µM				> 100 µM			> 100 µM	> 100 µM				
COc1ccc(C2=Nn3c(nnc3-n3nc(C)cc3C)SC2)cc1	0.0358 µM	0.482 µM	0.0407 µM	70.5 µM	0.0839 µM	> 100 µM	0.0303 µM	0.207 µM	0.192 µM	> 100 µM	0.0518 µM	> 100 µM			> 100 µM	0.0594 µM	> 100 µM	0.0554 µM	0.023 µM	0.254 µM
COc1ccc(-c2csc(Nc3cccc(-c4csc(C)n4)c3)n2)cc1	0.138 µM	3.88 µM			2.81 µM	> 33.8 µM	12.6 µM	49.2 µM	8.2 µM	40.3 µM	0.354 µM	> 19.3 µM	11.5 µM	> 50 µM	> 50 µM	8.27 µM		1.8 µM	1.57 µM	
CC(O)[C@H](NC(=O)N[C@@H](CC(N)=O)c1nc(N2CCNCC2)no1)C(=O)O (some centres not stated)	> 100 µM	> 100 µM	> 100 µM	> 100 µM	> 100 µM	> 100 µM			> 100 µM	> 100 µM	> 100 µM	> 100 µM	> 100 µM	> 100 µM	> 100 µM	> 100 µM	> 100 µM	> 100 µM	> 100 µM	> 100 µM
O=C(O)CCCCC1CCSS1 (configuration not stated)		> 100 µM		> 100 µM		> 100 µM						> 100 µM		> 100 µM	> 100 µM	> 100 µM	> 100 µM			
CN(C)CCN1CCc2c([nH]c3ccccc23)C1c1cccnc1 (configuration not stated)		> 100 µM				> 100 µM		> 100 µM				> 100 µM			> 100 µM	> 100 µM	> 100 µM			
O=C1OC(=O)C([Se]c2ccccc2)=C1[Se]c1ccccc1		> 100 µM		> 100 µM		> 100 µM		> 100 µM				> 100 µM			> 100 µM	> 100 µM				
OCC(O)C(O)C(O)c1nn(-c2ccc(F)cc2)c2nc3cc(Cl)c(Cl)cc3nc12 (configuration not stated)		> 100 µM		23.5 µM		28.8 µM						82.1 µM			> 100 µM	39.2 µM	> 100 µM			
CC1(C)OC(=O)C(=C2CCC(C(=O)Nc3cccc(C(F)(F)F)c3)N2)C(=O)O1 (configuration not stated)		> 100 µM		> 100 µM		> 100 µM		> 100 µM				> 100 µM			> 100 µM	> 100 µM	> 100 µM			
COc1cccc(/C=N\NC(=O)C(C)SC(C)C(=O)N/N=C/c2cccc(OC)c2)c1 (configuration not stated)		> 100 µM		> 100 µM		33.1 µM		27 µM				23.2 µM			34.7 µM	> 100 µM	47.5 µM			
COc1ccc(Br)c(C(=O)N2CCc3ccccc32)c1N		> 100 µM		> 100 µM		> 100 µM						> 100 µM			> 100 µM	97 µM	> 100 µM			
CCOC1Oc2ccc(C)cc2C(=O)/C1=C\Nc1ccc(S(N)(=O)=O)cc1 (configuration not stated)	9.48 µM	27.4 µM			11 µM	35.1 µM	17 µM	46.5 µM	10.1 µM	35.2 µM	17 µM	> 50 µM			14.9 µM	24.2 µM		6.62 µM	7.49 µM	
Cc1cc(Cl)ccc1NC(=O)C1C(=O)N(c2ccc(Cl)cc2C)C(=O)/C1=N\NC(N)=S (configuration not stated)		51.8 µM		49.7 µM		48.5 µM		72.4 µM				> 100 µM			46.2 µM	70.6 µM	44.5 µM			
Cc1ccc2ccc(-c3ccccc3)c3c2c1C(=O)c1ccccc1C3=O		> 100 µM		> 100 µM		> 100 µM		> 100 µM							> 100 µM	> 100 µM	> 100 µM			

Reference: PubChem BioAssay (NCI)
